Measurements taken from a melting point compilation (Tetko et al.; mined from patent text by program, amines drawn as free bases though some values may be those of a salt).

First: COC(=O)C1=C(C)Nc2ncnc(OC(C)C)c2C1c1cccc([N+](=O)[O-])c1 (configuration not stated)
Second: CC(C)(C)c1cc(C(=O)NCc2cccc([N+](=O)[O-])c2)cc(C(C)(C)C)c1O
The melting point of the first is higher: 218 to 219 °C for the first, 210 to 211 °C for the second.

First: CCOc1nc(N)nc(-c2ccccc2)c1-c1ccc(=O)n(C(C)C)n1
Second: CCOC(=O)Cc1csc(Sc2ccc(OCc3nc(-c4ccccc4)oc3C)cc2)n1
The melting point of the first is higher: 188 °C for the first, 95 to 96 °C for the second.

First: Nc1cc(-n2cccc2)ccc1Nc1cccc(-c2cncnc2)c1
Second: Cc1cc(C)cc(P(c2ccccc2)c2ccccc2)c1
The melting point of the first is higher: 190 to 192 °C for the first, 67 to 69 °C for the second.

First: COc1cc(N)c(CCN2CCN(c3nsc4ccccc34)CC2)cc1OC
Second: CCCc1[nH]c(=O)[nH]c(=O)c1N1CCN(Cc2ccccc2)CC1
The melting point of the first is lower: 55 °C for the first, 233 to 235 °C for the second.

First: BrCc1cc2ccccc2cc1CBr
Second: COP(=O)(Cc1ccc2ccccc2c1)OC
The melting point of the first is higher: 147 to 148 °C for the first, 80 to 81 °C for the second.

First: Cc1cccc(NC(=O)NC2N=C(c3ccccc3F)c3ccccc3N(Cc3ccc4ccccc4n3)C2=O)c1 (racemic)
Second: C#CC[C@H](c1nc2cccnc2c(=O)n1Nc1ccccc1)N(CCCNC(=O)OCc1ccccc1)C(=O)c1cccc(Cl)c1F
The melting point of the first is higher: 224 to 225 °C for the first, 100 to 102 °C for the second.

First: C(=C\c1nc2ccccc2n1-c1ccncc1)/c1ccoc1
Second: O=C(NCc1ccccc1Cl)c1cccnc1Oc1cccc(F)c1
The melting point of the first is higher: 172 °C for the first, 115 to 117 °C for the second.

First: Cc1c(C(=O)O)oc2ccc(OCCNC[C@@H](O)c3csc(C(F)(F)F)n3)cc12
Second: O=C(NO)c1cc(Oc2ccc(C(F)(F)F)cc2Cl)ccc1O
The melting point of the first is lower: 128 to 131 °C for the first, 188 to 191 °C for the second.

First: CCCCOCCOc1ccc(-c2ccc(N3CCCC3)c(C(C)=CC(=O)OCC)c2)cc1
Second: CCOC(Cc1ccc(OCCN2CCOc3ccccc32)cc1)C(=O)NC (configuration not stated)
The melting point of the first is lower: 81 to 82 °C for the first, 97 to 99 °C for the second.

Compared with Nc1cccc(Oc2cc(Oc3cccc(N)c3)cc(C(F)(F)F)c2)c1, CNC(=O)Nc1ccc(Oc2cccc(C(F)(F)F)c2)c(Cl)c1 is higher in melting point: 98 to 98.6 °C for the first, 160 °C for the second.

Compared with O=C(O)c1cccc(CC2COc3ccc(OCc4nc5cc(F)ccc5s4)cc3C2O)c1 (configuration not stated), CC(C)(C)C(=O)c1c(CC(C)(C)C(=O)O)n(Cc2ccc(Cl)cc2)c2ccc(OCc3ccc4occc4n3)cc12 is lower in melting point: 208 to 210 °C for the first, 160 °C for the second.

Compared with Cc1cc(C(=O)Nc2ccc(S(=O)(=O)C(F)(F)F)cc2Cl)c(O)c(C(C)(C)C)c1, CN1CCN(Cc2cc(C(=O)c3ccc(Cl)cc3)cc(C(C)(C)C)c2O)CC1 is lower in melting point: 209 to 212 °C for the first, 131 to 132 °C for the second.

First: CCOC(=O)c1cn(CCCl)c2nc(-c3ccncc3)c(F)cc2c1=O
Second: CCOC(=O)c1cnc2c(OC)nccc2c1Nc1ccccc1C
The melting point of the first is higher: 192 to 194 °C for the first, 158 °C for the second.

First: CC(C)(C)OC(=O)N1CCN(CC(O)COc2ccc(CC#N)cc2)CC1 (configuration not stated)
Second: CCc1nc(COc2ccc([N+](=O)[O-])cc2)cs1
The melting point of the first is higher: 98 to 100 °C for the first, 79 to 80 °C for the second.

First: CC(=O)Nc1snc(C)c1[N+](=O)[O-]
Second: COCc1cccc(CC=NO)c1[N+](=O)[O-]
The melting point of the first is higher: 210 °C for the first, 92 to 95 °C for the second.

First: COc1cc2c(cc1Nc1ncc(Cl)c(Nc3cc(C#N)ccc3OC)n1)CCN(CC(=O)N(C)C)CC2
Second: COc1cc2nc(CO)c(CO)c(-c3ccnc(NN)c3)c2cc1OC
The melting point of the first is lower: 86 to 105 °C for the first, 225 to 227 °C for the second.

Compared with N#Cc1cccc(C(=O)c2ccc(C3CCCCC3)cc2)c1, N#CCc1cccc2c(=O)cc(C3(Br)CCCCC3)oc12 is higher in melting point: 73 to 74 °C for the first, 144 to 145 °C for the second.

First: CC(CSc1cc(C(C)(C)C)c(O)c(C(C)(C)C)c1)N(O)C(N)=O (configuration not stated)
Second: CC(=O)CCCCCNC(=O)Nc1ccccc1CCc1cc(C(C)(C)C)c(O)c(C(C)(C)C)c1
The melting point of the first is lower: 65 to 66 °C for the first, 73 to 76 °C for the second.

First: NC(=O)c1nc(-c2cccc(O)c2)nc2c1[nH]c(=O)n2-c1ccc(C(F)(F)F)cc1
Second: O=C(O)c1ccc(Cn2cc(C3c4ccc(C(F)(F)F)cc4C=Cc4cc(C(F)(F)F)ccc43)c(=S)[nH]c2=O)o1
The melting point of the first is higher: 360 to 364 °C for the first, 159 to 162 °C for the second.

Compared with COc1ccc(Br)c(COc2ccc3ccc(OC)cc3c2Cl)c1, COc1cc(CSCCNC(=O)c2c(Cl)cccc2Cl)cc(OC)c1 is lower in melting point: 126 to 127 °C for the first, 46 to 47 °C for the second.

First: COc1ccc(C2=NN(CCCCCCBr)C(=O)[C@H]3CC=CC[C@@H]23)cc1OC (relative stereo)
Second: CCCc1c(OCCCCCc2c(Cl)c(Cl)cc(OC)c2OC)ccc(C(=O)OC)c1O
The melting point of the first is lower: 55 to 56 °C for the first, 113 to 115 °C for the second.

Compared with CCCCOc1cc2c(cc1C)C(=O)CC2(C)C, CCCn1c(=O)c2c(nc(/C=C/c3ccc(OC(C)=O)c(OC)c3)n2C)n(CCC)c1=O is higher in melting point: 59 °C for the first, 179 to 181 °C for the second.

Compared with CC(C)c1cccc(C(C)C)c1NC(=O)N(Cc1ccc(N(C)C)cc1)c1ccc(Br)cc1, COC(=O)/C=C/c1ccc(CC(C)NCC(O)c2ccccc2F)cc1 (configuration not stated) is lower in melting point: 165 to 166 °C for the first, 111 to 116 °C for the second.

First: CC1=Nc2c(nc(N)[nH]c2=O)NC1C (configuration not stated)
Second: CCOC(=O)C1CCc2c([nH]c3ccc(C)cc23)C1 (configuration not stated)
The melting point of the first is higher: greater than 300 °C for the first, 117 to 118 °C for the second.

First: COc1ccc(-c2cccc3c2OC(COS(=O)(=O)c2ccc(C)cc2)C3)cc1 (configuration not stated)
Second: COC(=O)c1ccc(-c2nc(-c3ccc(OC(F)F)cc3)co2)cc1
The melting point of the first is lower: 116 to 117 °C for the first, 160 to 161 °C for the second.

First: O=C1CCC(c2ccccc2)(c2ccccc2)C2CN(C(Cc3ccccc3)=NC(c3ccccc3)c3ccccc3)CC12 (configuration not stated)
Second: COc1ccc(C(C)C)cc1CN[C@H]1[C@H]2CCN(C[C@@H]2C(=O)NC(C)C(N)=O)[C@H]1C(c1ccccc1)c1ccccc1 (some centres not stated)
The melting point of the first is lower: 172 °C for the first, 243 to 245 °C for the second.

First: O=C1NCCNCCNCCNC(=O)c2cccc1n2
Second: O=C1c2cc(F)ccc2CCC1CN1CCC2(CC1)C(=O)NCN2c1ccccc1 (configuration not stated)
The melting point of the first is higher: 224 to 227 °C for the first, 162 to 165 °C for the second.

First: Fc1ccc(C(F)(F)C(F)(F)c2ccccc2Br)cc1
Second: FC(F)(F)c1ccc(COc2ccnc(CSc3nc4cscc4[nH]3)c2)cc1
The melting point of the first is lower: 52 to 53.5 °C for the first, 141 to 143 °C for the second.

First: Cc1ccc(-c2nc(N3CCN(C)CC3)c3c(C)c(C#N)sc3n2)cc1
Second: O=C(O)c1cnc(N2CCN(S(=O)(=O)c3ccc4ccccc4c3)CC2)nc1
The melting point of the first is lower: 207 to 209 °C for the first, greater than 260 °C for the second.

Compared with NS(=O)(=O)c1cccc(Cl)c1C=C1CCOC1=O, CC1OC(Cc2cccc3c2C(=O)c2ccccc2C3=O)CC(N)C1O (configuration not stated) is higher in melting point: 172 to 174 °C for the first, greater than 280 °C for the second.

Compared with COCOc1ccccc1-c1cc(-c2cccc(C(=O)OC)c2)c(C#N)c(NC(=O)c2cccs2)n1, CCOC(=O)CCC(=O)Oc1cccc(-c2cn3c(n2)sc2ccccc23)c1 is lower in melting point: 159 to 160 °C for the first, 70 to 74 °C for the second.

Compared with CCCSc1ncc(C(=O)N[C@H](C(=O)O)[C@@H](C)CC)n1Cc1ccccc1Cl, CCCCn1c(CO)nc2cnc3ccccc3c21 is lower in melting point: 156 to 158 °C for the first, 146 to 149 °C for the second.

First: COC(=O)NC(=S)Nc1ccccc1NC(=O)CCl
Second: COc1ccc(S(=O)(=O)C(Cc2ccccc2)C(=O)NO)cc1 (configuration not stated)
The melting point of the first is lower: 156 to 158 °C for the first, 180 °C for the second.

First: COc1ccc2c(c1)NC(=O)C(N=[N+]=[N-])CC2 (configuration not stated)
Second: CC(=O)NCCNC1=NS(=O)(=O)c2cc(Cl)ccc2N1
The melting point of the first is lower: 136 to 138 °C for the first, 295 to 297 °C for the second.

First: N#Cc1ccc(C=NO)cc1
Second: N#CC(Cl)Cc1ccc(Cl)cc1C(=O)c1ccccc1Cl (configuration not stated)
The melting point of the first is higher: 174 to 176 °C for the first, 102 to 103 °C for the second.

First: CC(=O)c1c(C)[nH]c(-c2ccccc2)c1N(C)C
Second: CN(C)CC#CC1=CC[N+]([O-])=C(c2ccccc2)c2cc(Cl)ccc21
The melting point of the first is higher: 153 to 155 °C for the first, 121 to 123 °C for the second.

First: FC(F)(F)c1nnc(Cl)c2cc3ccccn3c12
Second: CC1(C)COc2ccc(OC(F)(F)F)cc2C(O)(c2ccccn2)C1 (configuration not stated)
The melting point of the first is higher: 245 to 246 °C for the first, 76 °C for the second.

First: CC(=NO)C(C)(C)NCC(C)CNC(C)(C)C(Cn1ccnc1[N+](=O)[O-])=NO (configuration not stated)
Second: CCNC(=O)c1c([Si](C)(C)C)ccc(C#C[Si](C)(C)C)c1Cl
The melting point of the first is higher: 167 to 168 °C for the first, 131 to 132 °C for the second.

First: COc1c2c(c(OC)c(OC)c1OC)CC(CCCCCCCCNC(C)=O)C2
Second: COc1cc(C)c(C(=O)c2c(OC)ccc(C(F)(F)F)c2C)c(OC)c1OC
The melting point of the first is lower: 57 to 61 °C for the first, 95 to 96 °C for the second.

First: CCC(=O)CC(=O)c1ccc(C(=O)CC(=O)CC)cc1
Second: CON=C(c1ccc(F)cc1)c1ccc2[nH]c(NC(=O)OC)nc2c1
The melting point of the first is lower: 122 to 124 °C for the first, 290 to 295 °C for the second.

First: c1nc(SCC2CCCCC2)n[nH]1
Second: CC(C)C(=O)Nc1nc2c(ncn2C2OC(CO)C(O)C2OC2CCCO2)c(=O)[nH]1 (configuration not stated)
The melting point of the first is lower: 74 to 78 °C for the first, 178 to 180 °C for the second.

First: CCC(CC)(OC)c1ccc(Cl)c2nc3n(c12)CCCN3c1ccc(Cl)cc1C(F)(F)F
Second: CCN(CC)C(=O)c1cc(-c2ccc(Cl)cc2)nc2ccc(Cl)cc12
The melting point of the first is higher: 172 to 173 °C for the first, 130 °C for the second.

First: CN(C)C(=O)c1nc(Cl)c(Cl)[nH]1
Second: CCC1OCc2c1cnc(C)c2O (configuration not stated)
The melting point of the first is higher: 245 °C for the first, 172 °C for the second.

First: O=C(O)COc1ccc(SCCc2ccc(-c3ccc(C(F)(F)F)cc3)cc2)c2c1CCC2
Second: CCc1cc(OCc2ccc(-c3ccccc3-c3nnnn3-c3ccc([N+](=O)[O-])cc3)cc2)c2c(n1)CCCC2
The melting point of the first is lower: 170 to 172 °C for the first, 205 to 207 °C for the second.

First: CC1(C)OCC(C(N)=O)CO1
Second: CNC(=O)c1cc(N2CCOCC2)cc([N+](=O)[O-])c1
The melting point of the first is lower: 132 to 134 °C for the first, 204 to 207 °C for the second.

First: CCCn1c(=O)c2c(nc(C=Cc3ccc(S(=O)(=O)O)cc3)n2C)n(CCC)c1=O
Second: CCCn1nc2c(N)nc3ccccc3c2c1CC(C)(C)NC(=O)c1ccc(F)c(F)c1
The melting point of the first is higher: greater than 270 °C for the first, 165 to 166 °C for the second.

First: Cn1cc(C(=O)NCc2ccc(Cl)cc2)c(=O)c2cc(CO)cc(I)c21
Second: CCCCN(CCCC)C(=O)CC1C(=O)N(c2ccc(Cl)cc2)C(=O)N1c1ccc(Cl)cc1 (configuration not stated)
The melting point of the first is higher: 242 to 244 °C for the first, 124 °C for the second.

Compared with Cc1cc(C)cc(Sc2cncc3sc(C(N)=O)cc23)c1, Cc1cc(C)c(CS(=O)c2ccccc2)c(-c2ccc(F)c(C)c2)c1 (configuration not stated) is lower in melting point: 177 to 179 °C for the first, 75 to 85 °C for the second.

CC(=S)NCC1CC(c2ccc(-n3cccc3)c(F)c2)=NO1 (single isomer, unassigned; (-)) showed a melting point of 152 to 153 °C.
